These results are taken from patent US20110021517A1, “ANTITUMOR COMBINATION COMPRISING A MORPHOLINYL ANTHRACYCLINE DERIVATIVE AND DEMETHYLATING AGENTS” (NERVIANO MEDICAL SCIENCES S.R.L., priority 2008, published 2011).

Read-outs that look alike come from different tables or passages of the source.

One assay has as its system L1210 cells. Nature of the assay: Cytotoxic effect of nemorubicin on L1210 cells with or without pre-treatment with 5-aza-2′-deoxycytidine (cell counting, Coulter Counter). Type of assay: cell-based, murine. The following applies: for IC50: 24 h nemorubicin treatment, read-out: IC50 (dose inhibiting 50% cell growth). On the procedure: (§1) The effect of 5-aza-2′-deoxycytidine on the cytotoxic activity of morpholinyl anthracycline derivative (nemorubicin) was tested on a murine leukaemia cell line (L1210 cells). Cells were grown in RPMI 1640 medium supplemented with 10% foetal calf serum. Exponentially growing cells were seeded and exposed to 5-aza-2′-deoxycytidine immediately after seeding for 6 days, so as to allow efficient demethylation of the CpG islands. […] Six days following 5-aza-2′-deoxycytidine treatment, cells were diluted and treated with different concentrations of nemorubicin (50, 100, 200 and 500 nM) in comparison with cells not pretreated with the demethylating agent 5-aza-2′-deoxycytidine. In vitro drug sensitivity was determined by counting surviving cells by a Coulter Counter apparatus. The antiproliferative activity of the drug was evaluated after 24 h treatment and calculated from dose-response curves and expressed as dose inhibiting 50% cell growth (IC50). IC50 values were calculated from two-three independent experiments each consisting of at least three replicates. Combination indices (CI) were calculated using a computer program for multiple drug effect analysis based on the equation of Chou-Talalay (Adv Enzyme Regul 1984; 22:27-55) for mutually non-exclusive drugs. CI values <0.3-0.8 are indicative of synergism, 0.8-1.2 are indicative of additivity, […] are indicative of antagonism.

In a further assay the test system is L1210/MMRDX cells. As to the kind of experiment: Cytotoxic effect of nemorubicin on nemorubicin-resistant L1210/MMRDX cells with or without pre-treatment with 5-aza-2′-deoxycytidine. In kind it is cell-based, murine. The following applies: for IC50: 24 h nemorubicin treatment, read-out: IC50 (dose inhibiting 50% cell growth). As to the method: as §1
The effect of 5-aza-2′-deoxycytidine on the cytotoxic activity of nemorubicin was tested in comparison on L1210 cells and on the strain resistant to nemorubicin (L1210/MMRDX) (Geroni C. et al, Br J Cancer 9:315-19, 1994). Cells were grown in RPMI 1640 medium supplemented with 10% foetal calf serum. Exponentially growing cells were seeded and exposed to 5-aza-2′-deoxycytidine and nemorubicin as reported here above. In vitro drug sensitivity was determined by counting surviving cells by a Coulter Counter apparatus. The antiproliferative activity of the drug was evaluated after 24 h treatment and calculated from dose-response curves and expressed as IC50. IC50 values were calculated from two-three independent experiments each consisting of at least three replicates. Combination indices (CI) were calculated as described above.

On to “(8S-cis, 2″S)-7,8,9,10-tetrahydro-6,8,11-trihydroxy-8-(hydroxyacetyl)-1-methoxy-10-{[2,3,6-trideoxy-3-(2-methoxy-4-morpholinyl)-α-L-lyxo-hexopyranosyl]oxy}-5,12-naphthacenedione [nemorubicin]”, for which the half-maximal inhibitory concentration (IC50) – broadly, the concentration that inhibits the measured activity by half – in the assay with L1210 cells (L1210 cells pretreated with 5-aza-2′-deoxycytidine for 6 days) was determined as 0.13 µM; in the assay with L1210 cells (L1210 cells untreated (no 5-aza-2′-deoxycytidine pretreatment)) it was 0.21 µM; in the assay on L1210/MMRDX cells (L1210/MMRDX cells pretreated with 5-aza-2′-deoxycytidine) it was 0.14 µM; with L1210/MMRDX cells (L1210/MMRDX cells untreated (no 5-aza-2′-deoxycytidine pretreatment)), 0.48 µM. The “Combination effect based on CI value (in words)” value was “synergistic effect” with L1210 cells (combination of nemorubicin and 5-aza-2′-deoxycytidine, L1210 cells); “strong synergistic effect” in the assay on L1210/MMRDX cells (combination of nemorubicin and 5-aza-2′-deoxycytidine, L1210/MMRDX cells). In addition, the “CI (combination index, Chou-Talalay)” value with L1210 cells (nemorubicin combined with 5-aza-2′-deoxycytidine pretreatment, L1210 cells) is recorded as 0.14; in the assay on L1210/MMRDX cells (nemorubicin combined with 5-aza-2′-deoxycytidine pretreatment, L1210/MMRDX cells) it was 0.06.
